Legend:
[1] = target: T1, GNMT (glycine N-methyltransferase) (Homo sapiens, UniProt Q14749); test: Inhibition of human GNMT expressed in Escherichia coli at 10 uM assessed as reduction in SAH level using glycine as substrate in presence of SAM incubated for 30 mins by LC-MS/MS analysis relative to control; conditions: recombinant human GNMT expressed in Escherichia coli, probe glycine
T1 sequence (Q14749 whole entry): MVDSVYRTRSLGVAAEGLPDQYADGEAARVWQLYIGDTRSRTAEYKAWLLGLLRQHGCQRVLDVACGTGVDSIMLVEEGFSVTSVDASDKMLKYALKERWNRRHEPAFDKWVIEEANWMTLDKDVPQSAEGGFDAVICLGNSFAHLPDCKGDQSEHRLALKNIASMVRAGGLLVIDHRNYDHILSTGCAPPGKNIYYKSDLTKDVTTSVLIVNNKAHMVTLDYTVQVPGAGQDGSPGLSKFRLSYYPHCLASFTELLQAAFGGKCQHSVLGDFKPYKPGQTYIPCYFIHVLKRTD

[2] = target: Histone-lysine N-methyltransferase ASH1L (Homo sapiens, UniProt Q9NR48); test: Inhibition of human ASH1L expressed in Escherichia coli assessed as reduction in methylated polynucleosome level using polynucleosome as substrate in presence of [3H] SAM incubated for 15 mins by scintillation counting
[3] = target: T2, Histone-lysine N-methyltransferase EHMT2 (Homo sapiens, UniProt Q96KQ7); test: Inhibition of human G9a expressed in Escherichia coli assessed as reduction in methylated histone H3 full length using histone H3 full length level as substrate in presence of [3H] SAM incubated for 120 mins by scintillation counting
T2 sequence (Q96KQ7 whole entry): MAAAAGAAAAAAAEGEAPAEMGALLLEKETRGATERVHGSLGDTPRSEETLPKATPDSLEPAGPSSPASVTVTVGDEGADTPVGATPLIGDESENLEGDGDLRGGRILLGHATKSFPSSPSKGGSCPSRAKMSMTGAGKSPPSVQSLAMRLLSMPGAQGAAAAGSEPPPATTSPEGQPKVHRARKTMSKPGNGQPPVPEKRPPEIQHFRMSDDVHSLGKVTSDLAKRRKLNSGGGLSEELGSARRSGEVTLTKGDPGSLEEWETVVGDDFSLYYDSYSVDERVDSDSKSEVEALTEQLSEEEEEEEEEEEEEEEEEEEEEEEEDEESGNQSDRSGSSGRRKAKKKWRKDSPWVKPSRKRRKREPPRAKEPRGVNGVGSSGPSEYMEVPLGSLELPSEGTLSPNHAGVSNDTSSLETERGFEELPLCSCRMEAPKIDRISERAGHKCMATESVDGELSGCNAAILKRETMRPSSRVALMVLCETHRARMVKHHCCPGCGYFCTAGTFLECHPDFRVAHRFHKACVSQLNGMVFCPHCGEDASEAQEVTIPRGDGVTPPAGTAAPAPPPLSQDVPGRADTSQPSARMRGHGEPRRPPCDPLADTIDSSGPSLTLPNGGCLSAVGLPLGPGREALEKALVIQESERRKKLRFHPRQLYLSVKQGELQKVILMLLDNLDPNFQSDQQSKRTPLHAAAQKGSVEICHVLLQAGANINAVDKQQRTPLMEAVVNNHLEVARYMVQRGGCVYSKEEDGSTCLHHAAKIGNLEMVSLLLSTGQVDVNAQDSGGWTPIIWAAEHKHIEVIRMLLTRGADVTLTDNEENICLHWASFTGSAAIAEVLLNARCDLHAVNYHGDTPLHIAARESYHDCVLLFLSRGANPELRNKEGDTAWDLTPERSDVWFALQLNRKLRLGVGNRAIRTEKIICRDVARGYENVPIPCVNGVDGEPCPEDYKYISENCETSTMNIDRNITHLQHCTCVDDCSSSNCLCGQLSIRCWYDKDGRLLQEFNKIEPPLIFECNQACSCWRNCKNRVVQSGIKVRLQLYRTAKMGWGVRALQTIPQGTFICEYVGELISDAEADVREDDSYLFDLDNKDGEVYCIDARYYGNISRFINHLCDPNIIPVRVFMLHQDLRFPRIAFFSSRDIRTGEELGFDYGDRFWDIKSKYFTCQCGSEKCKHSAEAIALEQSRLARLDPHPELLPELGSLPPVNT

[4] = target: T3, Nicotinamide N-methyltransferase (Homo sapiens, UniProt P40261); test: Inhibition of N-terminal His6-tagged wild type human NNMT expressed in Escherichia coli NiCo21(DE3) assessed as reduction in 1-methylquinolinium level using quinoline as substrate in presence of SAM and measured every 27 seconds for 5.5 mins by fluorescence-based assay
T3 sequence (P40261 whole entry): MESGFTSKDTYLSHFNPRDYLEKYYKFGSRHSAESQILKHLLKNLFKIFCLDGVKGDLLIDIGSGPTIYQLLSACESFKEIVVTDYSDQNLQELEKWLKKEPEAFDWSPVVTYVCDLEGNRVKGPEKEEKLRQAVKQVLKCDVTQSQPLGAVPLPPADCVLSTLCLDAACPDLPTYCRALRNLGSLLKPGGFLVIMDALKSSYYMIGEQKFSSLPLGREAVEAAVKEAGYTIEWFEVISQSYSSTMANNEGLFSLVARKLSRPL

[5] = target: HNMT (histamine N-methyltransferase) (Homo sapiens, UniProt P50135); test: Inhibition of human HNMT expressed in Escherichia coli at 10 uM assessed as reduction in SAH level using histamine as substrate in presence of SAM incubated for 15 mins by LC-MS/MS analysis relative to control; conditions: recombinant human HNMT expressed in Escherichia coli, probe histamine
Sequence of HNMT (histamine N-methyltransferase) (P50135 whole entry): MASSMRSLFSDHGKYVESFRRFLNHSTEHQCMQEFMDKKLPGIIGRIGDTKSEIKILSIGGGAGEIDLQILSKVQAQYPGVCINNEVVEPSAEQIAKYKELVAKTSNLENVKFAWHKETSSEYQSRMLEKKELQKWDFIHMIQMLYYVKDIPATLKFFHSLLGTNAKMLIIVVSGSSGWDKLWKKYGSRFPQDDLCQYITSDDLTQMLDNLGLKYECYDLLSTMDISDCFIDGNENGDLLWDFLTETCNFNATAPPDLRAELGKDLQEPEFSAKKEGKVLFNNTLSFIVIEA

`NC(=O)c1cccc(C#C[C@@H](CC[C@H](N)C(=O)O)C[C@H]2O[C@@H](n3cnc4c(N)ncnc43)[C@H](O)[C@@H]2O)c1` was tested. Which inhibition at 0.5 h, 10 µM [1] did it give?
Its inhibition at 0.5 h, 10 µM is 23%.

And the IC50 [2]?
Its IC50 is over 10000 nM.

What about the IC50 [3] of the same molecule?
Its IC50 is over 10000 nM.

What about the Ki ([4]; read-out: Ki) of the same molecule?
The Ki was 0.5 nM.

What about the Ki ([4]; read-out: pKi (converted)) of the same molecule?
The Ki was 0.501 nM.

And the inhibition at 0.25 h, 10 µM [5]?
The inhibition at 0.25 h, 10 µM was 2%.
